{"source": "paper PMC6271218", "about": "“Pharmacokinetics, Tissue Distribution and Excretion of Verticinone from F. hupehensis in Rats” (Molecules, 2014)", "key": {"[1]": {"assay": "Plasma protein binding in vitro by ultrafiltration, human plasma", "format": "in vitro ADME, humans", "procedure": "The ability of verticinone to bind to plasma protein was determined by the ultrafiltration method. A Centrifree Micropartition device (Millipore, Beverly, MA, USA) was used to separate unbound and bound verticinone. Verticinone of different concentrations were added into blank rat and human plasma to give final concentrations at 5, 30 and 100 ng/mL. The spiked plasma was incubated for 30 min at 37 °C and an aliquot (100 μL) was analyzed by previously described methods to determine the total concentration of verticinone. The ultrafiltrate was obtained by centrifuging at 14,000 rpm for 10 min. The concentration of unbound verticinone in filtrate was similarly determined by the previously described methods. The percentage of free fraction (p) of verticinone was calculated as follow: p = (concentration of verticinone in ultrafiltrate/concentration of verticinone in original spiked plasma sample) × 100%."}, "[2]": {"assay": "Single-dose plasma pharmacokinetics after i.g. administration", "format": "in vivo, SD rats", "details": "for bioavailability / AUC(0-inf) / AUC(0-t) / Tmax / MRT last / Vd/F / half-life / Cmax: SD, rat, plasma; for bioavailability: oral, i.g. vs i.v., read-out: absolute (oral) bioavailability; for AUC(0-inf) / AUC(0-t) / Tmax / MRT last / Vd/F / half-life / Cmax: po; for MRT last: read-out: MRT0–t; for Vd/F: read-out: Vz/F; for half-life: read-out: t1/2z (converted); for Cmax: n = 5; for relationship between dosages and AUC0–t in plasma: oral 1, 2 and 4 mg/kg", "procedure": "Pharmacokinetic studies of verticinone after intravenous (i.v.) and intragastrical (i.g.) administration to rats were designed to determine pharmacokinetic parameters and absolute bioavailability. For i.g administration, verticinone was suspended in 0.5% carboxymethyl cellulose sodium (CMC-Na) to final concentrations of 0.2, 0.4 and 0.8 mg/mL. Verticinone was dissolved in 20% ethanol/80% water to final concentration of 0.08 mg/mL for i.v. administration. For the i.v. group, five male and five female rats received a single dose of 0.4 mg/kg. Blood samples (0.25 mL) were obtained at 0, 4, 15, 30, 45, 60, 120, 240, 360, 480, 600 and 720 min after injection. For the single- i.g. group, fifteen male and fifteen female rats were divided into three groups, and each group received a single oral dose of 1, 2 and 4 mg/kg of verticinone, respectively. In addition, another five male and five female rats received multiple oral doses of 4 mg/kg/day, given as 2 mg/kg doses twice a day (one dose in the morning and the second dose 12 h later) for 7 days, then a single oral dose of 2 mg/kg on the eighth day. Blood samples (0.25 mL) were obtained at 0, 5, 15, 30, 45, 60, 90, 120, 240, 360, 480 and 720 min for male rats and at 0, 5, 10, 20, 30, 45, 60, 120, 240, 360, 480 and 720 min for female rats after oral administration (the eighth day for multiple-dose group). Blood samples were then centrifuged at 4000 rpm for 10 min, and the plasma was collected. All plasma samples were frozen and stored at −20 °C until analysis. Verticinone was isolated from plasma by liquid-liquid extraction according to our previously reported procedure.\nThe quantification of verticinone was performed by a LC-MS method based on the previously reported method with slight modifications. The liquid chromatography system consisted of a model 2010 chromatograph (Shimadzu, Kyoto, Japan) equipped with a Shim-Pack VP-ODS C18 column (150 mm × 2.0 mm, 5 μm). A Shimadzu 2010 mass spectrometer (Q-array-Octapole-Quadrupole mass analyzer) equipped with an electrospray ionization interface was used for MS detection. The mobile phase consisted of (A) distilled water and (B) methanol, and the flow rate was 0.2 mL/min. Chromatography separation was achieved using a gradient elution program, as follows: 0.03→6.0 min, B% 15→85; 6.0→7.0 min, B% 85→85; 7.0→8.0 min, B% 85→15; 8.0–12.0 min, B% 15→15. The column and autosampler tray temperature were kept constant at 35 °C and 20 °C, respectively. For the determination of verticinone, the positive mode was selected, along with the conditions as follows.\nCDL voltage […], probe voltage 4.5 kV, CDL temperature 250 °C, block temperature 200 °C, gas flow 1.5 L/min. Hupehenine was used as the internal standard (IS). Both verticinone and IS were detected using selected ion monitoring (SIM) at m/z 430.25 for verticinone and m/z 416.30 for hupehenine (IS), with a dwell time of 200 ms. Blank plasma, tissue homogenate, urine, feces homogenate and bile were used to prepare the corresponding calibration curves to avoid different matrix effects.\nThe pharmacokinetic parameters were calculated by the DAS 2.0 software (Chinese Pharmacological Association, Beijing, China) using a standard non-compartmental method. The Cmax and Tmax were determined from the observed data. The elimination rate constant (ke) was calculated by log-linear regression of verticinone concentrations during the terminal elimination phase and the half-life (t1/2) was calculated as 0.693/ke. The AUC0–t was calculated by the linear trapezoidal method. The AUC0–∞ was calculated as the sum of AUC0–t and the extrapolated part determined by Clast/ke. The total clearance (CL) was calculated as dose/AUC0–∞. The absolute bioavailability (F) was calculated by the following equation: F = [(AUCi.g./AUCi.v.) × (Dosei.v./Dosei.g.)] × 100%. The results were expressed as mean ± SD. Statistical analyses were performed using an unpaired Student’s t-test."}, "[3]": {"details": "i.g. 1 mg/kg single dose, female rats"}, "[4]": {"details": "i.g. 1 mg/kg single dose, male rats"}, "[5]": {"details": "i.g. 2 mg/kg single dose, female rats"}, "[6]": {"details": "i.g. 2 mg/kg single dose, male rats"}, "[7]": {"details": "i.g. 4 mg/kg single dose, female rats"}, "[8]": {"details": "i.g. 4 mg/kg single dose, male rats"}}, "note": "Read-outs that look alike come from different tables or passages of the source.", "data": [{"smiles": "C[C@H]1CC[C@@H]2N(C1)C[C@H]1[C@@H]3C[C@H]4[C@@H](CC(=O)[C@H]5C[C@@H](O)CC[C@@]54C)[C@@H]3CC[C@@H]1[C@]2(C)O", "note": "[verticinone, Verticinone]", "values": [{"measurement": "fraction unbound at 30 min, 5 ng/mL", "setting": "[1]; human plasma, 5 ng/mL, ultrafiltration, n = 4, read-out: Protein binding rates (%) (converted)", "result": 0.074}, {"measurement": "fraction unbound at 30 min, 30 ng/mL", "setting": "[1]; human plasma, 30 ng/mL, ultrafiltration, n = 4, read-out: Protein binding rates (%) (converted)", "result": 0.105}, {"measurement": "fraction unbound at 30 min, 100 ng/mL", "setting": "[1]; human plasma, 100 ng/mL, ultrafiltration, n = 4, read-out: Protein binding rates (%) (converted)", "result": 0.054}, {"measurement": "fraction unbound at 30 min", "setting": "[1]; human, plasma, humans, concentration range 5~100 ng/mL", "result": "0.054 to 0.105"}, {"measurement": "bioavailability", "setting": "[2]; female rats", "result": 2.74, "unit": "%"}, {"measurement": "bioavailability", "setting": "[2]; male rats", "result": 45.8, "unit": "%"}, {"measurement": "AUC(0-inf)", "setting": "[2]; [3]", "result": "15.3 ± 3.06", "unit": "ng·h/mL"}, {"measurement": "AUC(0-t)", "setting": "[2]; [3]", "result": "14.5 ± 3.27", "unit": "ng·h/mL"}, {"measurement": "Tmax", "setting": "[2]; [3]", "result": "0.67 ± 0.31", "unit": "h"}, {"measurement": "MRT last", "setting": "[2]; [3]", "result": "3.59 ± 0.18", "unit": "h"}, {"measurement": "Vd/F", "setting": "[2]; [3]", "result": "280 ± 160", "unit": "L/kg"}, {"measurement": "half-life", "setting": "[2]; [3]", "result": "2.86 ± 1.29", "unit": "h"}, {"measurement": "AUC(0-inf)", "setting": "[2]; [4]", "result": "167 ± 52.5", "unit": "ng·h/mL"}, {"measurement": "AUC(0-t)", "setting": "[2]; [4]", "result": "159 ± 50.1", "unit": "ng·h/mL"}, {"measurement": "Tmax", "setting": "[2]; [4]", "result": "0.7 ± 0.11", "unit": "h"}, {"measurement": "MRT last", "setting": "[2]; [4]", "result": "3.21 ± 0.34", "unit": "h"}, {"measurement": "Vd/F", "setting": "[2]; [4]", "result": "25.5 ± 9.07", "unit": "L/kg"}, {"measurement": "half-life", "setting": "[2]; [4]", "result": "2.78 ± 0.85", "unit": "h"}, {"measurement": "AUC(0-inf)", "setting": "[2]; [5]", "result": "18.8 ± 5.01", "unit": "ng·h/mL"}, {"measurement": "AUC(0-t)", "setting": "[2]; [5]", "result": "17.3 ± 5.4", "unit": "ng·h/mL"}, {"measurement": "Tmax", "setting": "[2]; [5]", "result": "0.4 ± 0.36", "unit": "h"}, {"measurement": "MRT last", "setting": "[2]; [5]", "result": "3.42 ± 1.22", "unit": "h"}, {"measurement": "Vd/F", "setting": "[2]; [5]", "result": "649 ± 419", "unit": "L/kg"}, {"measurement": "half-life", "setting": "[2]; [5]", "result": "4.05 ± 2.48", "unit": "h"}, {"measurement": "AUC(0-inf)", "setting": "[2]; [6]", "result": "475 ± 119", "unit": "ng·h/mL"}, {"measurement": "AUC(0-t)", "setting": "[2]; [6]", "result": "446 ± 111", "unit": "ng·h/mL"}, {"measurement": "Tmax", "setting": "[2]; [6]", "result": "1.45 ± 1.42", "unit": "h"}, {"measurement": "MRT last", "setting": "[2]; [6]", "result": "3.62 ± 0.37", "unit": "h"}, {"measurement": "Vd/F", "setting": "[2]; [6]", "result": "19.4 ± 6.7", "unit": "L/kg"}, {"measurement": "half-life", "setting": "[2]; [6]", "result": "3.05 ± 0.78", "unit": "h"}, {"measurement": "AUC(0-inf)", "setting": "[2]; [7]", "result": "27.1 ± 5.78", "unit": "ng·h/mL"}, {"measurement": "AUC(0-t)", "setting": "[2]; [7]", "result": "26.6 ± 5.84", "unit": "ng·h/mL"}, {"measurement": "Tmax", "setting": "[2]; [7]", "result": "0.4 ± 0.35", "unit": "h"}, {"measurement": "MRT last", "setting": "[2]; [7]", "result": "2.04 ± 0.21", "unit": "h"}, {"measurement": "Vd/F", "setting": "[2]; [7]", "result": "387 ± 74.2", "unit": "L/kg"}, {"measurement": "half-life", "setting": "[2]; [7]", "result": "1.84 ± 0.58", "unit": "h"}, {"measurement": "AUC(0-inf)", "setting": "[2]; [8]", "result": "769 ± 257", "unit": "ng·h/mL"}, {"measurement": "AUC(0-t)", "setting": "[2]; [8]", "result": "737 ± 236", "unit": "ng·h/mL"}, {"measurement": "Tmax", "setting": "[2]; [8]", "result": "0.7 ± 0.11", "unit": "h"}, {"measurement": "MRT last", "setting": "[2]; [8]", "result": "3.19 ± 0.48", "unit": "h"}, {"measurement": "Vd/F", "setting": "[2]; [8]", "result": "18.6 ± 9.14", "unit": "L/kg"}, {"measurement": "half-life", "setting": "[2]; [8]", "result": "2.33 ± 0.86", "unit": "h"}, {"measurement": "Cmax", "setting": "[2]; [3]", "result": "3.67 ± 1.13", "unit": "ng/mL"}, {"measurement": "Cmax", "setting": "[2]; [4]", "result": "38.9 ± 9.34", "unit": "ng/mL"}, {"measurement": "Cmax", "setting": "[2]; [5]", "result": "7.45 ± 7.1", "unit": "ng/mL"}, {"measurement": "Cmax", "setting": "[2]; [6]", "result": "94.8 ± 17.1", "unit": "ng/mL"}, {"measurement": "Cmax", "setting": "[2]; [7]", "result": "12.6 ± 5.14", "unit": "ng/mL"}, {"measurement": "Cmax", "setting": "[2]; [8]", "result": "176 ± 45.2", "unit": "ng/mL"}, {"measurement": "relationship between dosages and AUC0–t in plasma", "setting": "[2]; female rats", "result": "nonlinear dependence"}, {"measurement": "relationship between dosages and AUC0–t in plasma", "setting": "[2]; male rats", "result": "linear dependence"}]}]}
